How the values were obtained:
Assay in all cases: Test D pre-/postemergence herbicide test
speedwell = type: in vivo, Veronica persica; settings: for Plant response rating: Postemergence, Speedwell, scale 0 to 100; for Plant response rating, Speedwell: Preemergence, scale 0 to 100 (0 no effect, 100 complete control)
Text: (§1) Seeds of plant species selected from bluegrass (annual bluegrass, Poa annua), blackgrass (Alopecurus myosuroides), canarygrass (littleseed canarygrass, Phalaris minor), chickweed (common chickweed, Stellaria media), galium (catchweed bedstraw, Galium aparine), bromegrass, downy (downy bromegrass, Bromus tectorum), field poppy (Papaver rhoeas), field violet (Viola arvensis), foxtail, green (green foxtail, Setaria viridis), deadnettle (henbit deadnettle, Lamium amplexicaule), ryegrass, Italian (Italian ryegrass, Lolium multiflorum), kochia (Kochia scoparia), lambsquarters (Chenopodium album), oilseed rape (Brassica napus), pigweed (Amaranthus retroflexus), chamomile (scentless chamomile, Matricaria inodora), Russian thistle (Salsola kali), speedwell (bird's-eye speedwell, Veronica persica), barley, spring (spring barley, Hordeum vulgare), wheat, spring (spring wheat, Triticum aestivum), buckwheat, wild (wild buckwheat, Polygonum convolvulus), mustard, wild (wild mustard, Sinapis arvensis), oat, wild (wild oat, Avena fatua), radish, wild (wild radish, Raphanus raphanistrum), […]), barley, winter (winter barley, Hordeum vulgare), and wheat, winter (winter wheat, Triticum aestivum) were planted into a silt loam soil and treated preemergence with test chemicals formulated in a non-phytotoxic solvent mixture which included a surfactant. At the same time, these species were planted in pots containing Redi-Earth® planting medium (Scotts Company, 14111 Scottslawn Road, Marysville, Ohio 43041) comprising spaghnum peat moss, vermiculite, wetting agent and starter nutrients and treated with postemergence applications of the test chemicals formulated in the same manner. Plants ranged in height from 2 to 18 cm (1- to 4-leaf stage). Treated plants and controls were maintained in a controlled growth environment for 7 to 21 days after which time all species were compared to controls and visually evaluated. Plant response ratings, summarized in Table D, are based on a scale of 0 to 100 where 0 is no effect and 100 is complete control. A dash (-) response means no test result.

blackgrass = type: in vivo, Alopecurus myosuroides; settings: for Plant response rating: Blackgrass, scale 0 to 100; for Plant response rating, Blackgrass: scale 0 to 100 (0 no effect, 100 complete control)
Text: as §1

bluegrass = type: in vivo, Poa annua; settings: for Plant response rating: Bluegrass, scale 0 to 100; for Plant response rating, Bluegrass: scale 0 to 100 (0 no effect, 100 complete control)
Text: as §1

lambsquarters = type: in vivo, Chenopodium album; settings: for Plant response rating: Lambsquarters, scale 0 to 100; for Plant response rating, Lambsquarters: scale 0 to 100 (0 no effect, 100 complete control)
Text: as §1

bromegrass, downy = type: in vivo, Bromus tectorum; settings: for Plant response rating: Bromegrass, Downy, scale 0 to 100; for Plant response rating, Bromegrass, Downy: scale 0 to 100 (0 no effect, 100 complete control)
Text: as §1

barley, winter = type: in vivo, Hordeum vulgare; settings: for Plant response rating: Barley, Winter, scale 0 to 100; for Plant response rating, Barley, Winter: scale 0 to 100 (0 no effect, 100 complete control)
Text: as §1

barley, spring = type: in vivo, Hordeum vulgare; settings: for Plant response rating: Barley, Spring, scale 0 to 100; for Plant response rating, Barley, Spring: scale 0 to 100 (0 no effect, 100 complete control)
Text: as §1

SMILES: O=C1NCC(c2ccc(F)c(F)c2)C1C(=O)Nc1cccc(F)c1 (racemic) [Compound 12]
- Plant response rating (speedwell; 16 g ai/ha): 0
- Plant response rating (speedwell; 31 g ai/ha): 0
- Plant response rating (speedwell; 62 g ai/ha): 10
- Plant response rating (speedwell; 125 g ai/ha): 10
- Plant response rating (speedwell; 250 g ai/ha): 25
- Plant response rating, Speedwell (speedwell; 31 g ai/ha): 0
- Plant response rating, Speedwell (speedwell; 62 g ai/ha): 0
- Plant response rating, Speedwell (speedwell; 125 g ai/ha): 0
- Plant response rating, Speedwell (speedwell; 250 g ai/ha): 100
- Plant response rating, Speedwell (speedwell; 16 g ai/ha): 0
- Plant response rating (blackgrass; Postemergence, 16 g ai/ha): 5
- Plant response rating (blackgrass; Postemergence, 31 g ai/ha): 10
- Plant response rating (blackgrass; Postemergence, 62 g ai/ha): 10
- Plant response rating (blackgrass; Postemergence, 125 g ai/ha): 15
- Plant response rating (blackgrass; Postemergence, 250 g ai/ha): 20
- Plant response rating, Blackgrass (blackgrass; Preemergence, 31 g ai/ha): 0
- Plant response rating, Blackgrass (blackgrass; Preemergence, 62 g ai/ha): 0
- Plant response rating, Blackgrass (blackgrass; Preemergence, 16 g ai/ha): 0
- Plant response rating (blackgrass; Preemergence, 125 g ai/ha): 0
- Plant response rating (blackgrass; Preemergence, 250 g ai/ha): 0
- Plant response rating (bluegrass; Postemergence, 16 g ai/ha): 0
- Plant response rating (bluegrass; Postemergence, 31 g ai/ha): 0
- Plant response rating (bluegrass; Postemergence, 62 g ai/ha): 0
- Plant response rating (bluegrass; Postemergence, 125 g ai/ha): 10
- Plant response rating (bluegrass; Postemergence, 250 g ai/ha): 10
- Plant response rating, Bluegrass (bluegrass; Preemergence, 31 g ai/ha): 0
- Plant response rating, Bluegrass (bluegrass; Preemergence, 62 g ai/ha): 0
- Plant response rating, Bluegrass (bluegrass; Preemergence, 16 g ai/ha): 0
- Plant response rating (bluegrass; Preemergence, 125 g ai/ha): 20
- Plant response rating (bluegrass; Preemergence, 250 g ai/ha): 40
- Plant response rating (lambsquarters; Postemergence, 16 g ai/ha): 0
- Plant response rating (lambsquarters; Postemergence, 31 g ai/ha): 0
- Plant response rating (lambsquarters; Postemergence, 62 g ai/ha): 10
- Plant response rating (lambsquarters; Postemergence, 125 g ai/ha): 10
- Plant response rating (lambsquarters; Postemergence, 250 g ai/ha): 25
- Plant response rating, Lambsquarters (lambsquarters; Preemergence, 31 g ai/ha): 0
- Plant response rating, Lambsquarters (lambsquarters; Preemergence, 62 g ai/ha): 0
- Plant response rating, Lambsquarters (lambsquarters; Preemergence, 16 g ai/ha): 0
- Plant response rating (lambsquarters; Preemergence, 125 g ai/ha): 30
- Plant response rating (lambsquarters; Preemergence, 250 g ai/ha): 30
- Plant response rating (bromegrass, downy; Postemergence, 16 g ai/ha): 0
- Plant response rating (bromegrass, downy; Postemergence, 31 g ai/ha): 0
- Plant response rating (bromegrass, downy; Postemergence, 62 g ai/ha): 0
- Plant response rating (bromegrass, downy; Postemergence, 125 g ai/ha): 0
- Plant response rating (bromegrass, downy; Postemergence, 250 g ai/ha): 5
- Plant response rating, Bromegrass, Downy (bromegrass, downy; Preemergence, 31 g ai/ha): 0
- Plant response rating, Bromegrass, Downy (bromegrass, downy; Preemergence, 62 g ai/ha): 0
- Plant response rating, Bromegrass, Downy (bromegrass, downy; Preemergence, 16 g ai/ha): 0
- Plant response rating (bromegrass, downy; Preemergence, 125 g ai/ha): 0
- Plant response rating (bromegrass, downy; Preemergence, 250 g ai/ha): 10
- Plant response rating (barley, winter; Postemergence, 16 g ai/ha): 0
- Plant response rating (barley, winter; Postemergence, 31 g ai/ha): 0
- Plant response rating (barley, winter; Postemergence, 62 g ai/ha): 0
- Plant response rating (barley, winter; Postemergence, 125 g ai/ha): 0
- Plant response rating (barley, winter; Postemergence, 250 g ai/ha): 0
- Plant response rating, Barley, Winter (barley, winter; Preemergence, 31 g ai/ha): 0
- Plant response rating, Barley, Winter (barley, winter; Preemergence, 62 g ai/ha): 0
- Plant response rating, Barley, Winter (barley, winter; Preemergence, 16 g ai/ha): 0
- Plant response rating (barley, winter; Preemergence, 125 g ai/ha): 0
- Plant response rating (barley, winter; Preemergence, 250 g ai/ha): 0
- Plant response rating (barley, spring; Postemergence, 16 g ai/ha): 0
- Plant response rating (barley, spring; Postemergence, 31 g ai/ha): 0
- Plant response rating (barley, spring; Postemergence, 62 g ai/ha): 5
- Plant response rating (barley, spring; Postemergence, 125 g ai/ha): 5
- Plant response rating (barley, spring; Postemergence, 250 g ai/ha): 5
- Plant response rating, Barley, Spring (barley, spring; Preemergence, 31 g ai/ha): 0
- Plant response rating, Barley, Spring (barley, spring; Preemergence, 62 g ai/ha): 0
- Plant response rating, Barley, Spring (barley, spring; Preemergence, 16 g ai/ha): 0
- Plant response rating (barley, spring; Preemergence, 125 g ai/ha): 0
- Plant response rating (barley, spring; Preemergence, 250 g ai/ha): 0

SMILES: O=C1NCC(c2cc(F)c(F)c(F)c2)C1C(=O)Nc1ccccc1C(F)(F)F (racemic) [Compound 33]
- Plant response rating (speedwell; 16 g ai/ha): 0
- Plant response rating (speedwell; 31 g ai/ha): 0
- Plant response rating (speedwell; 62 g ai/ha): 0
- Plant response rating (speedwell; 125 g ai/ha): 0
- Plant response rating (speedwell; 250 g ai/ha): 10
- Plant response rating (blackgrass; Postemergence, 16 g ai/ha): 0
- Plant response rating (blackgrass; Postemergence, 31 g ai/ha): 0
- Plant response rating (blackgrass; Postemergence, 62 g ai/ha): 0
- Plant response rating (blackgrass; Postemergence, 125 g ai/ha): 0
- Plant response rating (blackgrass; Postemergence, 250 g ai/ha): 0
- Plant response rating (bluegrass; Postemergence, 16 g ai/ha): 0
- Plant response rating (bluegrass; Postemergence, 31 g ai/ha): 0
- Plant response rating (bluegrass; Postemergence, 62 g ai/ha): 0
- Plant response rating (bluegrass; Postemergence, 125 g ai/ha): 0
- Plant response rating (bluegrass; Postemergence, 250 g ai/ha): 0
- Plant response rating (lambsquarters; Postemergence, 16 g ai/ha): 0
- Plant response rating (lambsquarters; Postemergence, 31 g ai/ha): 0
- Plant response rating (lambsquarters; Postemergence, 62 g ai/ha): 0
- Plant response rating (lambsquarters; Postemergence, 125 g ai/ha): 0
- Plant response rating (lambsquarters; Postemergence, 250 g ai/ha): 20
- Plant response rating (bromegrass, downy; Postemergence, 16 g ai/ha): 0
- Plant response rating (bromegrass, downy; Postemergence, 31 g ai/ha): 0
- Plant response rating (bromegrass, downy; Postemergence, 62 g ai/ha): 0
- Plant response rating (bromegrass, downy; Postemergence, 125 g ai/ha): 0
- Plant response rating (bromegrass, downy; Postemergence, 250 g ai/ha): 0
- Plant response rating (barley, winter; Postemergence, 16 g ai/ha): 0
- Plant response rating (barley, winter; Postemergence, 31 g ai/ha): 0
- Plant response rating (barley, winter; Postemergence, 62 g ai/ha): 0
- Plant response rating (barley, winter; Postemergence, 125 g ai/ha): 0
- Plant response rating (barley, winter; Postemergence, 250 g ai/ha): 0
- Plant response rating (barley, spring; Postemergence, 16 g ai/ha): 0
- Plant response rating (barley, spring; Postemergence, 31 g ai/ha): 0
- Plant response rating (barley, spring; Postemergence, 62 g ai/ha): 0
- Plant response rating (barley, spring; Postemergence, 125 g ai/ha): 0
- Plant response rating (barley, spring; Postemergence, 250 g ai/ha): 0
